Laboratory results reported in patent US6956040B2, “Oxazolidinone piperazinyl derivatives as potential antimicrobials” (Ranbaxy Laboratories Limited, priority 2001, dated 2005).
In brackets after ≈: the same amount, converted by molar mass.

Experiments:
[1] = system: S. pneum 6303; test: MIC, agar incorporation method; format: cell-based, Streptococcus pneumoniae; settings: S. pneum 6303; agar incorporation
From the text: (§1) The compounds of the invention display antibacterial activity when tested by the agar incorporation method. The following minimum inhibitory concentrations (μg/ml) were obtained for representative compounds of the invention which are given below in the following tables.
(§2) • 1) S.aureus ATCC 25923—Staphylococus aureus ATCC 25923 • 2) MRSA 15187—Methicillin Resistant Staphylococcus aureus • 3) Ent. faecalis ATCC 29212—Enterococcus faecalis ATCC 29212 • 4) Ent. faecium 6A—Enterococcus faecium 6A Van®, Cipro® • 5) Strep. pne. ATCC 6303—Streptococcus pneumoniae ATCC 6303 • 6) Strep. pyog. ATCC 19615—Streptococcus pyogenes • 7) S. epidermidis—Staphylococcus epidermidis ATCC 12228
(§3) Briefly, the compounds were dissolved in DMSO and doubling dilution of the compounds were incorporated into Meuller Hilton agar before solidification. Inoculum was prepared by suspending 4 to 5 colonies into 5 ml of normal saline solution and adjusting the turbidity to 0.5 Macfarland turbidity standard tables (1.5×10^8 CFU/ml), after appropriate dilutions, 10^4 CFU/spot was transfered into the surface of dried plate and incubated for 18 hours (24 hours for MRSN studies). The concentration showing no growth of the inoculated culture was recorded as the MIC. Appropriate ATCC standard strains were simultaneously tested and result recorded only when the MIC's against standard antibiotics were within the acceptable range.

[2] = system: S. pneum AB 34; test: MIC, agar incorporation method; format: cell-based, Streptococcus pneumoniae; settings: S. pneum AB 34; agar incorporation
Method: as §1, §3

[3] = system: VRE 6A; test: MIC, agar incorporation method; format: cell-based, Enterococcus faecium; settings: VRE 6A; agar incorporation
From the text: as §1, §2, §3

[4] = system: MRSA 33; test: MIC, agar incorporation method; format: cell-based, Staphylococcus aureus; settings: MRSA 33; agar incorporation
Method: as §1, §3

[5] = system: MRSA 562; test: In vivo activity against MRSA 562 (ED50); set-up: species or system Staphylococcus aureus
[6] = system: E. faecalis 29212; test: MIC, agar incorporation method; format: cell-based, Enterococcus faecalis; settings: E. faecalis 29212; agar incorporation
From the text: as §1, §2, §3

[7] = system: MRSA 15187; test: MIC, agar incorporation method; format: cell-based, Staphylococcus aureus; settings: MRSA 15187; agar incorporation
From the text: as §1, §2, §3

[8] = system: S. aureus 25923; test: MIC, agar incorporation method; format: cell-based, Staphylococcus aureus; settings: S. aureus 25923; agar incorporation
From the text: as §1, §2, §3

[9] = system: S. pyogenes 19615; test: MIC, agar incorporation method; format: cell-based, Streptococcus pyogenes; settings: S. pyogenes 19615; agar incorporation
From the text: as §1, §2, §3

[10] = system: E. faecalis; test: Summary of in vitro activity (MIC) against E. faecalis; format: cell-based, Enterococcus faecalis; settings: E. faecalis; for MIC50 / MIC90: Number 7
Method: as §1, §3

[11] = system: S. aureus; test: Summary of in vitro activity (MIC) against S. aureus; format: cell-based, Staphylococcus aureus; settings: S. aureus; for MIC50 / MIC90: Number 8
Method: as §1, §3

[12] = system: MRSA 562; test: MIC, agar incorporation method; format: cell-based, Staphylococcus aureus; settings: MRSA 562
Method: as §1, §3

[13] = system: G+ve; test: Summary of in vitro activity (MIC) against G+ve bacteria; format: cell-based; settings: for MIC50 / MIC90: G+ve, Number 49; for Geometric Mean of in vitro activity (MIC): Gram +ve
Method: as §1, §3

[14] = system: S. pneumoniae; test: Summary of in vitro activity (MIC) against S. pneumoniae; format: cell-based, Streptococcus pneumoniae; settings: S. pneumoniae; for MIC50 / MIC90: Number 19
Method: as §1, §3

SMILES: CC(=O)NC[C@H]1CN(c2ccc(N3CCN(C(=O)c4ccc(Br)o4)CC3)c(F)c2)C(=O)O1 [Compound No. 04]
- MIC [1]: 1 µg/mL (≈ 1.96 µM)
- MIC [2]: 1 µg/mL (≈ 1.96 µM)
- MIC [3]: 1 µg/mL (≈ 1.96 µM)
- MIC [4]: 2 µg/mL (≈ 3.93 µM)
- ED50 (mg/kg body weight) PO [5]: >25 mg/kg body weight
- MIC [6]: 2 µg/mL (≈ 3.93 µM)
- MIC [7]: 2 µg/mL (≈ 3.93 µM)
- MIC [8]: 2 µg/mL (≈ 3.93 µM)
- MIC [9]: 2 µg/mL (≈ 3.93 µM)

SMILES: CC(=O)NC[C@H]1CN(c2ccc(N3CCN(C(=O)c4ccc([N+](=O)[O-])o4)CC3)c(F)c2)C(=O)O1 [Compound No. 06, (S)-N-[[3-Fluoro-4-[N-1[4-(5-nitro-2-furoyl)piperazinyl]phenyl]-2-oxo-5-oxazolidinyl]methyl]acetamide]
- Geometric Mean of in vitro activity (MIC) [10]: 0.92 µg/mL
- MIC50 [10]: 1 µg/mL (≈ 2.1 µM)
- MIC90 [10]: 1 µg/mL (≈ 2.1 µM)
- MIC [1]: 2 µg/mL (≈ 4.21 µM)
- MIC [2]: 2 µg/mL (≈ 4.21 µM)
- Geometric Mean of in vitro activity (MIC) [11]: 0.74 µg/mL
- MIC50 [11]: 1 µg/mL (≈ 2.1 µM)
- MIC90 [11]: 1 µg/mL (≈ 2.1 µM)
- MIC [3]: 1 µg/mL (≈ 2.1 µM)
- MIC ([12]; Table 5): 1 µg/mL (≈ 2.1 µM)
- MIC [4]: 0.5 µg/mL (≈ 1.05 µM)
- ED50 (mg/kg body weight) PO [5]: >25 mg/kg body weight
- MIC50 [13]: 1 µg/mL (≈ 2.1 µM)
- MIC90 [13]: 2 µg/mL (≈ 4.21 µM)
- Geometric Mean of in vitro activity (MIC) [13]: 0.79 µg/mL
- MIC [6]: 1 µg/mL (≈ 2.1 µM)
- MIC [7]: 0.5 µg/mL (≈ 1.05 µM)
- MIC [8]: 1 µg/mL (≈ 2.1 µM)
- MIC [9]: 2 µg/mL (≈ 4.21 µM)
- Geometric Mean of in vitro activity (MIC) [14]: 1.27 µg/mL
- MIC50 [14]: 2 µg/mL (≈ 4.21 µM)
- MIC90 [14]: 2 µg/mL (≈ 4.21 µM)

SMILES: CC(=O)NC[C@H]1CN(c2ccc(N3CCN(C(=O)C(=O)c4cccs4)CC3)c(F)c2)C(=O)O1 [Compound No. 07, (S)-N[[3-[3-Fluoro-4-[N-1[4-{2-(2-thienyl)dicarbonyl}]-piperazinyl]phenyl]2-oxo-5-oxazolidinyl]methyl]acetamide]
- MIC [1]: 2 µg/mL (≈ 4.21 µM)
- MIC [2]: 2 µg/mL (≈ 4.21 µM)
- MIC [3]: 2 µg/mL (≈ 4.21 µM)
- MIC ([12]; Table 5): 2 µg/mL (≈ 4.21 µM)
- MIC ([12]; agar incorporation, Table 1): 2 µg/mL (≈ 4.21 µM)
- MIC [4]: 2 µg/mL (≈ 4.21 µM)
- ED50 (mg/kg body weight) PO [5]: >25 mg/kg body weight
- MIC [6]: 2 µg/mL (≈ 4.21 µM)
- MIC [7]: 2 µg/mL (≈ 4.21 µM)
- MIC [8]: 2 µg/mL (≈ 4.21 µM)
- MIC [9]: 0.5 µg/mL (≈ 1.05 µM)

SMILES: CC(=O)NC[C@H]1CN(c2ccc(N3CC4C(CN(C)Cc5ccc([N+](=O)[O-])o5)C4C3)c(F)c2)C(=O)O1 (stereo partly drawn) [Compound No. 40, (S)-N-[[3-[3-Fluoro[4-[3-(1α,5α,6α)-6-[N-(5-nitro-2-furylmethyl)-N-methyl]aminomethyl]-3-azabicyclo-[3.1.0]hexane]phenyl]-2-oxo-5-oxazolidinyl]methyl]acetamide]
- Geometric Mean of in vitro activity (MIC) [10]: 2.38 µg/mL
- MIC50 [10]: 2 µg/mL (≈ 3.99 µM)
- MIC90 [10]: 4 µg/mL (≈ 7.98 µM)
- MIC [2]: 2 µg/mL (≈ 3.99 µM)
- Geometric Mean of in vitro activity (MIC) [11]: 1.83 µg/mL
- MIC50 [11]: 2 µg/mL (≈ 3.99 µM)
- MIC90 [11]: 4 µg/mL (≈ 7.98 µM)
- MIC [3]: 4 µg/mL (≈ 7.98 µM)
- MIC ([12]; agar incorporation, Table 1): 1 µg/mL (≈ 1.99 µM)
- MIC [4]: 2 µg/mL (≈ 3.99 µM)
- MIC50 [13]: 1 µg/mL (≈ 1.99 µM)
- MIC90 [13]: 2 µg/mL (≈ 3.99 µM)
- Geometric Mean of in vitro activity (MIC) [13]: 0.93 µg/mL
- MIC [6]: 2 µg/mL (≈ 3.99 µM)
- MIC [7]: 2 µg/mL (≈ 3.99 µM)
- MIC [8]: 2 µg/mL (≈ 3.99 µM)
- MIC [9]: 0.125 µg/mL (≈ 0.249 µM)
- Geometric Mean of in vitro activity (MIC) [14]: 0.71 µg/mL
- MIC50 [14]: 1 µg/mL (≈ 1.99 µM)
- MIC90 [14]: 1 µg/mL (≈ 1.99 µM)

SMILES: CC(=O)NC[C@H]1CN(c2ccc(N3CCC(N(C)Cc4ccc([N+](=O)[O-])o4)CC3)c(F)c2)C(=O)O1 [Compound No. 50, (S)-N-[[3-[4-[4-(N-methyl-N-2-furyl(5-nitro)methyl)-aminopiperidine-1-yl]-3-fluorophenyl]-2oxo-oxazolidin-5-yl]methyl]acetamide]
- Geometric Mean of in vitro activity (MIC) [10]: 0.42 µg/mL
- MIC50 [10]: 0.5 µg/mL (≈ 1.02 µM)
- MIC90 [10]: 1 µg/mL (≈ 2.04 µM)
- MIC [1]: 0.5 µg/mL (≈ 1.02 µM)
- MIC [2]: 2 µg/mL (≈ 4.09 µM)
- Geometric Mean of in vitro activity (MIC) [11]: 1 µg/mL
- MIC50 [11]: 1 µg/mL (≈ 2.04 µM)
- MIC90 [11]: 2 µg/mL (≈ 4.09 µM)
- MIC [3]: 0.25 µg/mL (≈ 0.511 µM)
- MIC ([12]; Table 5): 0.5 µg/mL (≈ 1.02 µM)
- MIC ([12]; agar incorporation, Table 1): 0.5 µg/mL (≈ 1.02 µM)
- MIC [4]: 1 µg/mL (≈ 2.04 µM)
- MIC50 [13]: 1 µg/mL (≈ 2.04 µM)
- MIC90 [13]: 2 µg/mL (≈ 4.09 µM)
- Geometric Mean of in vitro activity (MIC) [13]: 0.72 µg/mL
- MIC [6]: 0.5 µg/mL (≈ 1.02 µM)
- MIC [7]: 1 µg/mL (≈ 2.04 µM)
- MIC [8]: 1 µg/mL (≈ 2.04 µM)
- MIC [9]: 0.125 µg/mL (≈ 0.255 µM)
- Geometric Mean of in vitro activity (MIC) [14]: 1.41 µg/mL
- MIC50 [14]: 1 µg/mL (≈ 2.04 µM)
- MIC90 [14]: 2 µg/mL (≈ 4.09 µM)

SMILES: CC(=O)NC[C@H]1CN(c2ccc(N3CCN(Cc4ccc(C5OCCCO5)o4)CC3)c(F)c2)C(=O)O1 [Compound No. 66]
- MIC [1]: 8 µg/mL (≈ 15.9 µM)
- MIC [2]: 8 µg/mL (≈ 15.9 µM)
- MIC [3]: 16 µg/mL (≈ 31.8 µM)
- MIC ([12]; agar incorporation, Table 1): 2 µg/mL (≈ 3.98 µM)
- MIC [4]: 2 µg/mL (≈ 3.98 µM)
- MIC [6]: 16 µg/mL (≈ 31.8 µM)
- MIC [7]: 2 µg/mL (≈ 3.98 µM)
- MIC [8]: 2 µg/mL (≈ 3.98 µM)
- MIC [9]: 8 µg/mL (≈ 15.9 µM)

SMILES: CC(=O)NC[C@H]1CN(c2ccc(N3CCN(Cc4ccc(NC=O)o4)CC3)c(F)c2)C(=O)O1 [Compound No. 67]
- MIC ([12]; Table 5): 2 µg/mL (≈ 4.35 µM)
- ED50 (mg/kg body weight) PO [5]: >25 mg/kg body weight

SMILES: CC(=O)NC[C@H]1CN(c2ccc(N3CC4C(C3)C4N(C)C(=O)Cc3cccs3)c(F)c2)C(=O)O1 (stereo partly drawn) [Compound No. 71, (S)-N-[[3-[3-Fluoro[4-[3-(1α, 5α, 6α)-6-[N-(2-thiopheneacetyl)-N-methyl]amino]-3-azabicyclo-[3.1.0]hexane]phenyl]-2-oxo-5-oxazolidinyl]methyl]acetamide]
- MIC [1]: 4 µg/mL (≈ 8.22 µM)
- MIC [2]: 4 µg/mL (≈ 8.22 µM)
- MIC [3]: 4 µg/mL (≈ 8.22 µM)
- MIC ([12]; Table 5): 4 µg/mL (≈ 8.22 µM)
- MIC [4]: 4 µg/mL (≈ 8.22 µM)
- ED50 (mg/kg body weight) PO [5]: >25 mg/kg body weight
- MIC [6]: 4 µg/mL (≈ 8.22 µM)
- MIC [7]: 4 µg/mL (≈ 8.22 µM)
- MIC [8]: 4 µg/mL (≈ 8.22 µM)
- MIC [9]: 2 µg/mL (≈ 4.11 µM)

SMILES: CC1(C)S[C@@H]2[C@H](NC(=O)Cc3ccccc3)C(=O)N2[C@H]1C(=O)O [Penicillin G, reference compound]
- MIC50 [13]: 4 µg/mL (≈ 12 µM)
- MIC90 [13]: 32 µg/mL (≈ 95.7 µM)
- Geometric Mean of in vitro activity (MIC) [13]: 0.76 µg/mL
- Geometric Mean of in vitro activity (MIC) [14]: 2.16 µg/mL
- MIC50 [14]: 4 µg/mL (≈ 12 µM)
- MIC90 [14]: 32 µg/mL (≈ 95.7 µM)
